Key:
[1] = test system: SF-295; test: Cytotoxicity against human SF-295 cells assessed as growth inhibition at 10 uM after 48 hrs by sulforhodamine B assay; type: functional; settings: read-out: GI
[2] = test system: CCRF-CEM; test: Cytotoxicity against human CCRF-CEM cells assessed as growth inhibition at 10 uM after 48 hrs by sulforhodamine B assay; type: functional; settings: read-out: GI
[3] = test system: SW-620; test: Cytotoxicity against human SW-620 cells assessed as growth inhibition at 10 uM after 48 hrs by sulforhodamine B assay; type: functional; settings: read-out: GI
[4] = Cytotoxicity against human Hs 578T cells assessed as growth inhibition at 10 uM after 48 hrs by sulforhodamine B assay; type: functional; settings: read-out: GI
[5] = test system: MDA-MB-231; test: Cytotoxicity against human MDA-MB-231 cells assessed as growth inhibition at 10 uM after 48 hrs by sulforhodamine B assay; type: functional; settings: read-out: GI
[6] = test system: LOX IMVI; test: Cytotoxicity against human LOX IMVI cells assessed as growth inhibition at 10 uM after 48 hrs by sulforhodamine B assay; type: functional; settings: read-out: GI
[7] = test system: MCF7; test: Induction of cell cycle arrest in human MCF7 cells assessed as accumulation of cells at S phase at IC50 concentration by Propidium iodide staining based flow cytometric analysis (reference value: 27.61%); type: functional
[8] = test system: UACC-62; test: Cytotoxicity against human UACC-62 cells assessed as growth inhibition at 10 uM after 48 hrs by sulforhodamine B assay; type: functional; settings: read-out: GI
[9] = test system: MCF-10A; test: Cytotoxicity against human MCF10A cells assessed as inhibition of cell growth incubated for 48 hrs by MTT assay; type: cell-based
[10] = test system: MCF7; test: Induction of apoptosis in human MCF7 cells assessed as late apoptotic cells at 13.30 uM after 48 hrs by annexin V-FITC/propidium iodide staining based flow cytometric analysis (reference value: 0.14%); type: functional; settings: dose 13.3 µM
[11] = test system: SNB-75; test: Cytotoxicity against human SNB-75 cells assessed as growth inhibition at 10 uM after 48 hrs by sulforhodamine B assay; type: functional; settings: read-out: GI
[12] = test system: NCI/ADR-RES; test: Cytotoxicity against human NCI-ADR-RES cells assessed as growth inhibition at 10 uM after 48 hrs by sulforhodamine B assay; type: functional; settings: read-out: GI
[13] = test system: MCF7; test: Induction of cell cycle arrest in human MCF7 cells assessed as accumulation of cells at G1 phase at IC50 concentration by Propidium iodide staining based flow cytometric analysis (reference value: 61.45%); type: functional
[14] = target: Phosphatidylinositol 4,5-bisphosphate 3-kinase catalytic subunit beta isoform (Homo sapiens, UniProt P42338); test: Inhibition of PI3Kbeta (unknown origin) using PIP2 as substrate preincubated for 10 mins followed by substrate addition and measured after 1 hr by ELISA
[15] = test system: HOP-62; test: Cytotoxicity against human HOP-62 cells assessed as growth inhibition at 10 uM after 48 hrs by sulforhodamine B assay; type: functional; settings: read-out: GI
[16] = test system: SNB-19; test: Cytotoxicity against human SNB-19 cells assessed as growth inhibition at 10 uM after 48 hrs by sulforhodamine B assay; type: functional; settings: read-out: GI
[17] = test system: SF-268; test: Cytotoxicity against human SF-268 cells assessed as growth inhibition at 10 uM after 48 hrs by sulforhodamine B assay; type: functional; settings: read-out: GI
[18] = test system: U-251; test: Cytotoxicity against human U-251 cells assessed as growth inhibition at 10 uM after 48 hrs by sulforhodamine B assay; type: functional; settings: read-out: GI
[19] = test system: K562; test: Cytotoxicity against human K562 cells assessed as growth inhibition at 10 uM after 48 hrs by sulforhodamine B assay; type: functional; settings: read-out: GI
[20] = Selectivity index, ratio of IC50 for human MCF-10A cells to IC50 for human MCF7 cells; type: toxicity; settings: MCF-10A cells versus MCF7 cells, read-out: Ratio IC50
[21] = test system: OVCAR-8; test: Cytotoxicity against human OVCAR8 cells assessed as growth inhibition at 10 uM after 48 hrs by sulforhodamine B assay; type: functional; settings: read-out: GI
[22] = test system: ACHN; test: Cytotoxicity against human ACHN cells assessed as growth inhibition at 10 uM after 48 hrs by sulforhodamine B assay; type: functional; settings: read-out: GI
[23] = test system: NCI-H460; test: Cytotoxicity against human NCI-H460 cells assessed as growth inhibition at 10 uM after 48 hrs by sulforhodamine B assay; type: functional; settings: read-out: GI
[24] = test system: NCI-H522; test: Cytotoxicity against human NCI-H522 cells assessed as growth inhibition at 10 uM after 48 hrs by sulforhodamine B assay; type: functional; settings: read-out: GI
[25] = test system: HCT-116; test: Cytotoxicity against human HCT-116 cells assessed as growth inhibition at 10 uM after 48 hrs by sulforhodamine B assay; type: functional; settings: read-out: GI
[26] = test system: MCF7; test: Cytotoxicity against human MCF7 cells assessed as growth inhibition at 10 uM after 48 hrs by sulforhodamine B assay; type: functional; settings: read-out: GI
[27] = test system: SR; test: Cytotoxicity against human SR cells assessed as growth inhibition at 10 uM after 48 hrs by sulforhodamine B assay; type: functional; settings: read-out: GI
[28] = test system: MCF7; test: Antiproliferative activity against human MCF7 cells assessed as inhibition of cell growth incubated for 48 hrs by MTT assay; type: functional, cell-based; settings: MCF7, 48 h

Chain of Phosphatidylinositol 4,5-bisphosphate 3-kinase catalytic subunit beta isoform (P42338 whole entry, canonical isoform): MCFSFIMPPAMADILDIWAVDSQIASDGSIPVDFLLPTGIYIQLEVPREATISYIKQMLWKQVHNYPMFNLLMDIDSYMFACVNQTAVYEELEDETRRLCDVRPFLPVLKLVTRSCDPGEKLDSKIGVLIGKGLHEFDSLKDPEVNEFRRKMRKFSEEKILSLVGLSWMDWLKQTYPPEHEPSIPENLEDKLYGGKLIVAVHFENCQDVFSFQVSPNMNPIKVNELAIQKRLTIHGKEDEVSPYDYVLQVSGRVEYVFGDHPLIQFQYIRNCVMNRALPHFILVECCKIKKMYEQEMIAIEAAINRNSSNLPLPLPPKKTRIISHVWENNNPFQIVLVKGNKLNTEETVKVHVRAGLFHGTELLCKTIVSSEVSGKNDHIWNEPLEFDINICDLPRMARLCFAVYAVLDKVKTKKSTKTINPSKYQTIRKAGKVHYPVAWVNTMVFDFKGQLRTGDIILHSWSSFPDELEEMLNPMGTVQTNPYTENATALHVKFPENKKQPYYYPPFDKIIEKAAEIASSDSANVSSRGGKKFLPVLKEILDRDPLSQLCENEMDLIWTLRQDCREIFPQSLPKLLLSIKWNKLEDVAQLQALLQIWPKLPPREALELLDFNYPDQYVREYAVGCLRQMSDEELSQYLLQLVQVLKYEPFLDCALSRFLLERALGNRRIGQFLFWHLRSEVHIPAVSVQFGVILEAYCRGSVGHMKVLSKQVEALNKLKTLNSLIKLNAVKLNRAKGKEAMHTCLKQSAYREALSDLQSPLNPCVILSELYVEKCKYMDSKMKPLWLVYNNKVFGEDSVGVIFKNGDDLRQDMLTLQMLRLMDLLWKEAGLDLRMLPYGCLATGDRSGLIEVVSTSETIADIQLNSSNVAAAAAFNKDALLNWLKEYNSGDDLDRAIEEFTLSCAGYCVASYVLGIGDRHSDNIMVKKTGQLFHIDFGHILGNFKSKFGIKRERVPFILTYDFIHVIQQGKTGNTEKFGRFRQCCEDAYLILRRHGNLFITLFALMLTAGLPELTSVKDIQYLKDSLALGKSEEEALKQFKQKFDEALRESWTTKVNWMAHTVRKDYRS

Question: Which results are given for `COC(=O)/C=C1\S/C(=N\N=C\c2ccc(OCC(F)(F)F)cc2)N(c2ccccc2)C1=O`?
Answer: inhibition of growth at 10 µM [1]: 13.2%; inhibition of growth at 10 µM [2]: 13.5%; inhibition of growth at 10 µM [3]: 12.4%; inhibition of growth at 10 µM [4]: 43%; inhibition of growth at 10 µM [5]: 21.5%; inhibition of growth at 10 µM [6]: 24.1%; Activity [7]: 36.02%; inhibition of growth at 10 µM [8]: 18.9%; IC50 [9]: 24.2 µM; Activity [10]: 9.42%; inhibition of growth at 10 µM [11]: 28.2%; inhibition of growth at 10 µM [12]: 24.6%; Activity [13]: 55.47%; IC50 [14]: 53.5 µM; inhibition of growth at 10 µM [15]: 31.5%; inhibition of growth at 10 µM [16]: 18.2%; inhibition of growth at 10 µM [17]: 11.8%; inhibition of growth at 10 µM [18]: 23.1%; inhibition of growth at 10 µM [19]: 25.7%; selectivity ratio [20]: 1.81; inhibition of growth at 10 µM [21]: 35.5%; inhibition of growth at 10 µM [22]: 24%; inhibition of growth at 10 µM [23]: 14.2%; inhibition of growth at 10 µM [24]: 12.2%; inhibition of growth at 10 µM [25]: 28.8%; inhibition of growth at 10 µM [26]: 33.2%; inhibition of growth at 10 µM [27]: 24.7%; IC50 [28]: 13.3 µM
